ChEMBL document CHEMBL1201862, “PubChem BioAssay data set” (2004)
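The compound was tested at five concentrations on cells cultured in 96-well plates, with a 48-hour exposure period. GI50 = concentration required for 50% inhibition of growth.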 The source made the active and inactive calls. Rule as the data show it: active = GI50 up to about 1.1 µM and inactive = higher.

Assays:
Assay in all cases: growth of human tumour cells (NCI), 48 h
786-0 = system: 786-0
A549 = system: A549
ACHN = system: ACHN
CAKI-1 = system: CAKI-1
DLD-1 = system: DLD-1
HCT-15 = system: HCT-15
HT-29 = system: HT-29
KM12 = system: KM12
MOLT-4 = system: MOLT-4
OVCAR-3 = system: OVCAR-3
OVCAR-5 = system: OVCAR-5
SF-295 = system: SF-295
SK-MEL-5 = system: SK-MEL-5
SNB-19 = system: SNB-19
SNB-75 = system: SNB-75
TK-10 = system: TK-10
U-251 = system: U-251
UACC-257 = system: UACC-257
UACC-62 = system: UACC-62
NCI/ADR-RES = system: NCI/ADR-RES

SMILES | GI50 (786-0) | GI50 (A549) | GI50 (ACHN) | GI50 (CAKI-1) | GI50 (DLD-1) | GI50 (HCT-15) [µM] | GI50 (HT-29) | GI50 (KM12) | GI50 (MOLT-4) | GI50 (OVCAR-3) | GI50 (OVCAR-5) | GI50 (SF-295) | GI50 (SK-MEL-5) | GI50 (SNB-19) | GI50 (SNB-75) | GI50 (TK-10) | GI50 (U-251) | GI50 (UACC-257) | GI50 (UACC-62) | GI50 (NCI/ADR-RES)
Cc1ccc(NC(=O)CC2C(=O)Nc3ccccc3[S+]2[O-])c(C)c1 (stereo not given) | 15.1 µM (inactive) | 16.1 µM (inactive) | 21 µM (inactive) | 11 µM (inactive) | 15.3 µM (inactive) | 4.94 | 4.35 µM (inactive) | 4.6 µM (inactive) | 6.28 µM (inactive) | 9.51 µM (inactive) | 53.7 µM (inactive) | 12.8 µM (inactive) | 4.11 µM (inactive) | 11.7 µM (inactive) | 11.7 µM (inactive) | 22.4 µM (inactive) | 10.8 µM (inactive) | 50.8 µM (inactive) | 7.23 µM (inactive) | –
COC(=O)C(CCCN1C(=O)c2ccccc2C1=O)C(=O)OC | > 100 µM (inactive) | > 100 µM (inactive) | > 100 µM (inactive) | > 100 µM (inactive) | > 100 µM (inactive) | > 100 | > 100 µM (inactive) | > 100 µM (inactive) | > 100 µM (inactive) | > 100 µM (inactive) | > 100 µM (inactive) | > 100 µM (inactive) | > 100 µM (inactive) | > 100 µM (inactive) | > 100 µM (inactive) | > 100 µM (inactive) | > 100 µM (inactive) | > 100 µM (inactive) | > 100 µM (inactive) | –
O=C1C(c2ccc([N+](=O)[O-])cc2)=[N+]([O-])c2ccccc21 | > 100 µM (inactive) | 28 µM (inactive) | 16.8 µM (inactive) | 42.2 µM (inactive) | 33.9 µM (inactive) | 17.3 | 37.6 µM (inactive) | 34.8 µM (inactive) | 31.5 µM (inactive) | 19.9 µM (inactive) | 22.8 µM (inactive) | 42.1 µM (inactive) | 16.3 µM (inactive) | < 0.01 µM (active) | 30.6 µM (inactive) | 37.1 µM (inactive) | 16.5 µM (inactive) | – | 19.2 µM (inactive) | –
COc1ccccc1-n1c(N)c2c(C)c(-c3ccccc3)[nH]c2nc1=S | > 100 µM (inactive) | 5.74 µM (inactive) | > 100 µM (inactive) | > 100 µM (inactive) | > 100 µM (inactive) | > 100 | – | > 100 µM (inactive) | > 100 µM (inactive) | > 100 µM (inactive) | > 100 µM (inactive) | – | 4.76 µM (inactive) | > 100 µM (inactive) | 59.3 µM (inactive) | > 100 µM (inactive) | 54.3 µM (inactive) | > 100 µM (inactive) | 77.1 µM (inactive) | –
O=C1C=CC(=O)c2cc(Sc3ccccc3)c(=O)ccc21 | 14.8 µM (inactive) | 20.1 µM (inactive) | 9.89 µM (inactive) | – | 13.6 µM (inactive) | 13.5 | 20.6 µM (inactive) | 18.1 µM (inactive) | 2.24 µM (inactive) | 16.9 µM (inactive) | 19.6 µM (inactive) | 8.36 µM (inactive) | 14.2 µM (inactive) | 19.3 µM (inactive) | 8.2 µM (inactive) | 17.1 µM (inactive) | 17 µM (inactive) | 18 µM (inactive) | 15.5 µM (inactive) | 22 µM (inactive)
C=C1C(C)C2C(Cc3ccccc3)NC(=O)C23C(OC(C)=O)/C=C/C(C)(O)CC(C)C/C=C/C3C1O (stereo not given) | 0.632 µM (active) | 0.603 µM (active) | 0.492 µM (active) | 0.0288 µM (active) | 0.0796 µM (active) | 2.7 | 0.138 µM (active) | 97.3 µM (inactive) | 5.15 µM (inactive) | 2.19 µM (inactive) | 70.6 µM (inactive) | 0.21 µM (active) | 3.05 µM (inactive) | 0.0863 µM (active) | 0.014 µM (active) | 60.1 µM (inactive) | 0.0679 µM (active) | 17.1 µM (inactive) | 18.2 µM (inactive) | 57 µM (inactive)
CCCCCCCCCCCCCC(=O)OC1C(CO)OC(=O)C1O (stereo not given) | > 100 µM (inactive) | > 100 µM (inactive) | > 100 µM (inactive) | > 100 µM (inactive) | > 100 µM (inactive) | > 100 | > 100 µM (inactive) | > 100 µM (inactive) | > 100 µM (inactive) | > 100 µM (inactive) | > 100 µM (inactive) | 58.3 µM (inactive) | > 100 µM (inactive) | 71.4 µM (inactive) | > 100 µM (inactive) | > 100 µM (inactive) | 82.8 µM (inactive) | > 100 µM (inactive) | > 100 µM (inactive) | –
COc1cc2c(cc1O)CN1CCC23C=C[C@@H](O)CC13 (stereo not given in full) | 76.4 µM (inactive) | 75.2 µM (inactive) | 57.5 µM (inactive) | > 100 µM (inactive) | 63 µM (inactive) | 68.4 | 47.5 µM (inactive) | 54 µM (inactive) | 45.5 µM (inactive) | > 100 µM (inactive) | > 100 µM (inactive) | 96.2 µM (inactive) | 39.6 µM (inactive) | 55.6 µM (inactive) | 59.4 µM (inactive) | > 100 µM (inactive) | 46.7 µM (inactive) | 79.4 µM (inactive) | > 100 µM (inactive) | –
COc1cccc(NC(=O)/C(Cc2nc3ccccc3nc2C)=N/NC(=O)C[n+]2ccccc2)c1 | > 100 µM (inactive) | > 100 µM (inactive) | > 100 µM (inactive) | > 100 µM (inactive) | > 100 µM (inactive) | > 100 | > 100 µM (inactive) | > 100 µM (inactive) | > 100 µM (inactive) | > 100 µM (inactive) | > 100 µM (inactive) | > 100 µM (inactive) | > 100 µM (inactive) | > 100 µM (inactive) | > 100 µM (inactive) | > 100 µM (inactive) | 17.7 µM (inactive) | 45.4 µM (inactive) | > 100 µM (inactive) | –
CCN(CC)C(=O)CC12CCCCC1=Nc1ccccc12 (stereo not given) | > 100 µM (inactive) | > 100 µM (inactive) | > 100 µM (inactive) | > 100 µM (inactive) | > 100 µM (inactive) | > 100 | > 100 µM (inactive) | > 100 µM (inactive) | > 100 µM (inactive) | > 100 µM (inactive) | > 100 µM (inactive) | > 100 µM (inactive) | > 100 µM (inactive) | – | > 100 µM (inactive) | > 100 µM (inactive) | > 100 µM (inactive) | > 100 µM (inactive) | > 100 µM (inactive) | –
COc1ccc(OC2(c3cc(OC)ccc3OC)OC(=O)c3ccccc32)cc1 (stereo not given) | > 100 µM (inactive) | > 100 µM (inactive) | > 100 µM (inactive) | > 100 µM (inactive) | > 100 µM (inactive) | > 100 | > 100 µM (inactive) | > 100 µM (inactive) | > 100 µM (inactive) | > 100 µM (inactive) | > 100 µM (inactive) | > 100 µM (inactive) | > 100 µM (inactive) | > 100 µM (inactive) | > 100 µM (inactive) | > 100 µM (inactive) | > 100 µM (inactive) | > 100 µM (inactive) | > 100 µM (inactive) | –
CC1=C(C(=O)CC(=O)C(=O)NC2C3CC4CC(C3)CC2C4)Sc2ccccc2N1 (stereo not given) | > 100 µM (inactive) | > 100 µM (inactive) | > 100 µM (inactive) | 99.1 µM (inactive) | > 100 µM (inactive) | > 71.4 | > 100 µM (inactive) | > 86.3 µM (inactive) | 4.43 µM (inactive) | > 100 µM (inactive) | > 100 µM (inactive) | > 100 µM (inactive) | > 83.6 µM (inactive) | > 100 µM (inactive) | > 100 µM (inactive) | > 100 µM (inactive) | > 100 µM (inactive) | > 100 µM (inactive) | > 100 µM (inactive) | –
COC(=O)[C@H]1[C@H]2C[C@@H]3c4[nH]c5cc(OC)ccc5c4CCN3C[C@H]2C[C@@H](OC(=O)c2cc(OC)c(OC)c(OC)c2)[C@@H]1OC [RESERPINE] | 14.2 µM (inactive) | 18 µM (inactive) | 15 µM (inactive) | 18.1 µM (inactive) | 30.5 µM (inactive) | 20.3 | 12 µM (inactive) | 18.4 µM (inactive) | 7.19 µM (inactive) | 18.3 µM (inactive) | 38 µM (inactive) | 17.7 µM (inactive) | 15.7 µM (inactive) | 16.2 µM (inactive) | 2.7 µM (inactive) | 17.5 µM (inactive) | 15 µM (inactive) | 15.6 µM (inactive) | 13.3 µM (inactive) | –
C/C(CC(=O)Nc1ccc(Cl)c(Cl)c1)=N/NC(=O)C[N+](C)(C)C | 56.5 µM (inactive) | > 100 µM (inactive) | > 100 µM (inactive) | > 100 µM (inactive) | 29.2 µM (inactive) | > 100 | > 100 µM (inactive) | > 100 µM (inactive) | > 100 µM (inactive) | > 100 µM (inactive) | > 100 µM (inactive) | > 100 µM (inactive) | > 100 µM (inactive) | > 100 µM (inactive) | > 100 µM (inactive) | > 100 µM (inactive) | – | > 100 µM (inactive) | > 100 µM (inactive) | –
CNc1nnnn1C1OC(CO)C(O)C1O (stereo not given) | > 100 µM (inactive) | > 100 µM (inactive) | > 100 µM (inactive) | > 100 µM (inactive) | > 100 µM (inactive) | > 100 | > 100 µM (inactive) | > 100 µM (inactive) | > 100 µM (inactive) | > 100 µM (inactive) | > 100 µM (inactive) | > 100 µM (inactive) | > 100 µM (inactive) | – | > 100 µM (inactive) | > 100 µM (inactive) | > 100 µM (inactive) | > 100 µM (inactive) | > 100 µM (inactive) | –
